The target of assay [1] is T1, human flk-1 (Homo sapiens, UniProt P35968).
T1 construct: expressed in transfected cells; host or cells: NIH fibroblast line (Flk-1/NIH cells, clone 3)
Nature of the assay: Biochemical FLK-1 assay (bio Flk), autophosphorylation ELISA. As for the experimental part:
This assay evaluates flk-1 autophosphorylation activity in vitro using ELISA.
1. Seed cell into growth medium and grow for 2-3 days to 90-100% confluency at 37° C. and 5% C)2.
2. Remove the medium and wash the cells twice with PBS. Lyse with HNTG lysis buffer. Collect all lysates and vortex mix them for 20-30 seconds.
3. Remove insoluble material by centrifugation (5-10 min at about 10,000×g).
4. Determine the protein concentration using BCA kit.
5. Partition lysate into 1 mg aliquots, store at −80° C.
1. Coat Corning 96-well ELISA plates with 2 μg/well purified L4 (or E 38) in 100 μl of PBS. Store overnight at 4° C.
2. Remove unbound proteins from wells by inverting the plate to remove the liquid. Wash one time with dH2O pat plate on paper towel to remove excess liquid.
3. Block plates with 150 μl blocking buffer per well. Incubate for 45-60 minutes with shaking at 4° C.
4. Remove the blocking buffer and wash the ELISA plate three times with dH2O and one time with TBST. Pat plate on paper towel to remove excess liquid.
5. Dilute lysate in PBS to give final concentration of 50 μg/100 μl. Add 100 μl of diluted lysate to each well. Incubate with shaking at 4° C. overnight.
6. Remove unbound proteins from wells by inverting the plate. Wash as in step 4.
7. Add 80 μl of kinase buffer to wells (90 μl to negative control wells).
8. Dilute test compounds (normally 10-fold) into wells of a polypropylene plate containing 20% DMSO in TBS.
9. Add 10 μl of the diluted compounds to the ELISA wells containing immobilized flk-1 and shake. Control wells receive no compounds.
10. From stock 1 mM ATP, prepare 0.3 mM ATP solution in dH20 (alternatively, kinase buffer may be used).
11. Add 10 μl of 0.3 mM ATP to all wells except the negative controls. Incubate for 60 min. at room temperature with shaking.
12. After 1 hr stop the kinase reaction by adding 11 μl 200 mM EDTA. Shake for 1-2 min.
13. Wash the ELISA plate 4 times with dH2O and twice with TBST.
14. Add 100 μl of 1:5000 biotinylated 4G10:TBST to all wells. Incubate 45 min with shaking at room temperature.
15. While the above is incubating, add 50 μl of solutions A & B from the ABC kit to 10 ml of TBST. These solutions must be combined approximately 30 min prior to use.
16. Wash plates as in step 4.
17. Add 100 μl of the preformed A & B complex to all wells. Incubate 30 min with shaking at room temperature.
18. Wash plates as in step 4.
19. Add 100 μl turbo-TMB. Shake at room temperature for 10-15 min.
20. When the color in the positive control wells reaches an absorbance of about 0.35-0.4, stop the reaction with 100 μl of turbo-TMB stop solution.
Background: In an ELISA, binding on a coated surface is turned into a signal by an enzyme label.

Assay [2] has as its target T2, src protein kinase (Gallus gallus, UniProt P00523).
T2 construct: made in house; host or cells: Schizosaccharomyces pombe strain SP200
Nature of the assay: Biochemical src assay (bio SRC). As to bio SRC, outcome of primary assay: key: DNH = did not hit in primary assay. The settings on record: for IC50: 50% inhibition of target PTK activity. The protocol: This assay is used to determine src protein kinase activity measuring phosphorylation of a biotinylated peptide as the readout.
a. Yeast transformed with src (Sugen, Inc., Redwood City, Calif.).
1. Coat ELISA plate with 0.5 μg/well anti-src mab in 100 μl of pH 9.6 sodium carbonate buffer; hold at 4° C. overnight.
2. Wash wells once with PBS.
3. Block plate with 0.15 ml 5% milk in PBS for 30 min. at room temperature.
4. Wash plate 5× with PBS.
5. Add 10 μg/well of src transformed yeast lysates diluted in Lysis Buffer (0.1 ml total volume per well). (Amount of lysate may vary between batches.) Shake plate for 20 minutes at room temperature.
1. 4G10 plate: coat 0.5 μg/well 4G10 in 100 μl PBS overnight at 4° C. and block with 150 μl of 5% milk in PBS for 30 minutes at room temperature.
1. Remove unbound proteins.from plates and wash plates 5× with PBS.
2. Add 0.08 ml Kinase Reaction Mixture per well (containing 10 μl of 10×-Kinase Buffer and 10 μM (final concentration) biotin-EEEYEEYEEEYEEEYEEEY per well diluted in water.
3. Add 10 μl of compound diluted in water containing 10% DMSO and pre-incubate for 15 minutes at room temperature.
4. Start kinase reaction by adding 10 μl/well of 0.05 mM ATP in water (5 μM ATP final).
5. Shake ELISA plate for 15 min. at room temperature.
6. Stop kinase reaction by adding 10 μl of 0.5 M EDTA per well.
7. Transfer 90 μl supernatant to a blocked 4G10 coated ELISA plate.
8. Incubate for 30 min. while shaking at room temperature.
9. Wash plate 5× with TBST.
10. Incubate with Vectastain ELITE ABC reagent (100 μl/well) for 30 min. at room temperature.
11. Wash the wells 5× with TBST.
12. Develop with Turbo TMB.

Where [3] appears, read: 50% inhibition of target PTK activity, read-out: bio Flk IC50.

Where two headings read alike, the source gives them in different places.

T1 sequence (P35968 20-1356): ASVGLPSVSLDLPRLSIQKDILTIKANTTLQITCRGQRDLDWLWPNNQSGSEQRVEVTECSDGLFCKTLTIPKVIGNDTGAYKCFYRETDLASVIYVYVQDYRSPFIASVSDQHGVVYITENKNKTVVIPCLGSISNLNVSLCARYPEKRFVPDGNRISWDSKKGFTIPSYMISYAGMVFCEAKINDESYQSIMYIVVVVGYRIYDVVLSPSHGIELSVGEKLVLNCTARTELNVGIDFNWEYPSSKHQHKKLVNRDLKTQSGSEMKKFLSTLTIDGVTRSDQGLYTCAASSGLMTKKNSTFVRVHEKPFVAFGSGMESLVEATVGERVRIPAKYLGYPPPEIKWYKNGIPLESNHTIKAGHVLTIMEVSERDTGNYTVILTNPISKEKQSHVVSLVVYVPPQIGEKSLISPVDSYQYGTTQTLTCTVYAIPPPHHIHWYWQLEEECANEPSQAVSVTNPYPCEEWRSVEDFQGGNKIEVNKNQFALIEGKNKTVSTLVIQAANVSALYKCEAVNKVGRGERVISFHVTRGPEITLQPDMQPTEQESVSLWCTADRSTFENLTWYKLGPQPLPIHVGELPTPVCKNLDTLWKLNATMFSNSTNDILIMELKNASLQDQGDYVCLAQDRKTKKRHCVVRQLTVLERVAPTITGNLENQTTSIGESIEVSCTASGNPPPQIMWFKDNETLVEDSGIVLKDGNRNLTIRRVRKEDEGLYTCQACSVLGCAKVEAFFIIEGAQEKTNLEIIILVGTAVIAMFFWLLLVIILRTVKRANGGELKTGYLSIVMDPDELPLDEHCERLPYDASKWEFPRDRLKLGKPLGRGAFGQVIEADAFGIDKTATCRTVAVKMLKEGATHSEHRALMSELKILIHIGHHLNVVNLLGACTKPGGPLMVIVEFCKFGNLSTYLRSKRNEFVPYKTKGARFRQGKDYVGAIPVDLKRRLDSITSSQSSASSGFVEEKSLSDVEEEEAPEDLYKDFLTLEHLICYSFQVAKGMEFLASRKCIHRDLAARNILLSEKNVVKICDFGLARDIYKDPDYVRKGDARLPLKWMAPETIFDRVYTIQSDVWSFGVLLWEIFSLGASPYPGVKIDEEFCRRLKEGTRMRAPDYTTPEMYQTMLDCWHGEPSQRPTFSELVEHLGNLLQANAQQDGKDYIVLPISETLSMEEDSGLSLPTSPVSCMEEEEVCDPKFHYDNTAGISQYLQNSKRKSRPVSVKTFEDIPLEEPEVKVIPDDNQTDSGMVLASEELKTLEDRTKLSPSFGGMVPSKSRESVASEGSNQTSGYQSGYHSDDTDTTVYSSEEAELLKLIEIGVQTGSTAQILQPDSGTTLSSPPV

Take `CC1C/C(=C2/C(=O)Nc3ccccc32)c2ccccc21` (centres unmarked) [Compound 1, 3-(3-methylindan-1-ylidene)-1,3-dihydroindol-2-one]: in assay [1] (setting [3]), the IC50 was found to be 18.4 µM. The “bio SRC, outcome of primary assay” value in assay [2] is “DNH”. The matching figures for `Cc1cccc2c1CC/C2=C1/C(=O)Nc2ccccc21` [Compound 2, 3-(4-Methylindan-1-ylidene)-1,3-dihydroindol-2-one]: 8.2 µM and “DNH”. `COc1ccc2c(c1)CC/C2=C1/C(=O)Nc2ccccc21` [Compound 3, 3-(5-Methoxyindan-1-ylidene)-1,3-dihydroindol-2-one]: in assay [1], half-maximal inhibition (IC50) was put at 2.6 µM. The “bio SRC, outcome of primary assay” value in assay [2] is listed as “DNH”. Take `CN(C)c1ccc2c(c1)CC/C2=C1/C(=O)Nc2ccccc21` [Compound 5, 3-(5-Dimethylaminoindan-1-ylidene)-1,3-dihydroindol-2-one]: the IC50 in assay [1] (setting [3]) is 3.1 µM; in assay [2] it was over 100 µM.

For the compound `O=C1Nc2ccccc2/C1=C1\CCc2cc(Cl)ccc21` [Compound 7, 3-(5-Chloroindan-1-ylidene)-1,3-dihydroindol-2-one], the results for the IC50 in assay [1] (setting [3]) and in assay [2] were 7.1 µM and over 100 µM, respectively.

On to `O=C1Nc2ccccc2/C1=C1\CCc2cc(N3CCCCC3)ccc21` [Compound 8, 3-(5-Piperidin-1-yl-indan-1-ylidene)-1,3-dihydroindol-2-one], for which, in assay [1] (setting [3]), the half-maximal inhibitory concentration (IC50) was 4.3 µM.

As for `O=C1Nc2ccccc2/C1=C1\CCc2cc(Br)ccc21` [Compound 9, 3-(5-Bromoindan-1-ylidene)-1,3-dihydroindol-2-one], the IC50 in assay [1] (setting [3]) worked out at 2.9 µM.

On to `O=C1Nc2ccccc2/C1=C1\CCc2ccccc21` [Compound 10, 3-Indan-1-ylidene-1,3-dihydroindol-2-one], for which the values for the 50% inhibitory concentration (IC50) in assay [1] (setting [3]) and in assay [2] were 1.4 µM and over 100 µM, respectively. `COc1ccc2c(c1)C(CC(=O)O)C/C2=C1/C(=O)Nc2ccccc21` (centres unmarked) [Compound 11, [6-Methoxy-3-(2-oxo-1,2-dihydroindol-3-ylidene)-indan-1-yl]acetic Acid]: the 50% inhibitory concentration (IC50) in assay [1] (setting [3]) turned out to be 0.02 µM. As to `COc1cc2c(cc1OC)/C(=C1\C(=O)Nc3ccccc31)CC2` [Compound 12, 3-(5,6-Dimethoxyindan-1-ylidene)-1,3-dihydroindol-2-one], the IC50 in assay [1] (setting [3]) and in assay [2] was over 25 µM each time.

The term IC50 denotes the concentration needed to halve the response being measured.

These data come from patent publication US6642251B1, “Geometrically restricted 2-indolinone derivatives as modulators of protein kinase activity” (Sugen, Inc., priority 1998, dated 2003).
